Experimental data taken from article PMC8781550, “The Effect of pH and Sodium Caseinate on the Aqueous Solubility, Stability, and Crystallinity of Rutin towards Concentrated Colloidally Stable Particles for the Incorporation into Functional Foods” (Molecules, 2022).

What was measured:
[1] = design: method as in PMID 25496805, PMID 20201551; details: cited from earlier work
[2] = design: method as in doi:10.1016/j.foodhyd.2019.05.032; details: cited from earlier work
[3] = cited from earlier work
[4] = Aqueous solubility (recovery) of rutin at various pH (centrifugation, HPLC of supernatant); assay type: physicochemical
Protocol: Rutin was mixed with Milli-Q® (MilliporeSigma, Burlington, MA, USA) water at various concentrations (0.01 to 10% w/v) and the pH of the mixtures increased gradually (while stirring at 300 rpm) until the full dissolution was achieved. […] Then, the pH was increased further until the complete dissolution. […] Samples were taken at each pH point (i.e., pH 1–11) and at each concentration of rutin.
In order to determine the optimum amount of both rutin and NaCas to achieve the best loading, various concentrations of rutin (0.01–4% w/v) were dissolved in a solution of NaCas (0.2–8% w/v) at pH 11, which was then acidified down to pH 6, where the precipitates were formed. A duration of 15 min between each pH adjustment was allowed, and samples were taken along the process at every pH point (i.e., pH 11, 9, 8, 7, and 6; pH below 6 was not considered as the sample withdrawal was not practical due to the co-precipitation of NaCas and rutin). The withdrawn samples were left for 30 min for the complete formation of the possible precipitates. Each sample was then divided into two equal parts; the first part was centrifuged (3000× g, 20 °C, 10 min) in the Amicon Ultra-15 Centrifugal Filter Units containing a cellulose membrane with a molecular weight cut-off of […] (Ultracel-100K, Millipore, Burlington, MA, USA) to remove both precipitates and colloidally stable complexes, while the second part was simply filtered using a 0.45 µm membrane (Millipore) to remove the precipitates only. The concentration of rutin in the ultrafiltrates, as well as the filtrates (the second part), was determined using HPLC analysis, and the rutin recovery% was calculated correspondingly. As the control, the same concentration of rutin (1%) was also treated and analysed the same way as the rutin–NaCas mixture. In this study, for simplicity, the recovery % of rutin is referred to as its solubility.

[5] = Crystallinity of dried rutin at each pH (XRD); assay type: physicochemical
Protocol: To study the crystallinity of rutin at each pH, samples of rutin at each pH were stored in a desiccator with silica beads (25 °C) to dry and crystallize. The dried materials were ground using a mortar and pestle and then were analysed for the degree of crystallinity at 20.0 °C using a Rigaku Rapid image-plate detector (Rigaku, The Woodlands, TX, USA) set at 127.40 mm. The Cu Kα radiation (λ = 1.540562 Å) was generated by a Rigaku MicroMax007 microfocus (rotating anode generator; Rigaku, The Woodlands, TX, USA) and an Osmic-Rigaku metal multi-layer optic device (Rigaku, USA) was used for focusing and monochromation. Samples were mounted in Hampton CryoLoops (Hampton Research, Aliso Viejo, CA, USA), and data collection was under the control of RAPID II software (Version 2.4.2, Rigaku, USA). The data were background corrected and converted to a line profile with 2DP programme (Version 1.0.3.4, Rigaku, USA), and the resulting diffractograms were compared using CrystalDiffract software (Version 6.5.5, CrystalMaker Software Ltd., Oxfordshire, UK). A 2θ angle range of 5° to 100° was used for the analysis of all the samples.

[6] = Chemical stability of rutin at alkaline pH (HPLC); assay type: physicochemical; details: rutin 1% w/v dissolved at pH 11.0 and kept for 30 min

C[C@@H]1O[C@@H](OC[C@H]2O[C@@H](Oc3c(-c4ccc(O)c(O)c4)oc4cc(O)cc(O)c4c3=O)[C@H](O)[C@@H](O)[C@@H]2O)[C@H](O)[C@H](O)[C@H]1O [rutin]
logP [1]: 0.15
Solubility in ethanol [2]: about 4 % w/v
Decomposition of rutin ([3]; 0.2 M NaOH, with or without beta-cyclodextrin): slow decomposition
Rutin concentration remaining ([3]; after 5 h, pH constantly adjusted to 8): approximately 20%
Rutin concentration ([3]; weak acidic conditions (pH 5)): remained almost unchanged
Aqueous solubility of rutin ([4]; 0.01% w/v rutin in water, regardless of the pH): most of the rutin was soluble
Aqueous solubility (recovery): fraction of rutin soluble ([4]; dispersion containing 5% rutin, pH 9): about 90%
Concentration of rutin that could be dissolved ([4]; pH 11.0): 10 % (w/v)
Solubility (recovery) of rutin ([4]; pH < 6, 1% w/v rutin, regardless of association with NaCas): almost all rutin was precipitated
Crystallinity of dried rutin particles (XRD) ([5]; pH 11 and 10): amorphous
Crystallinity of dried rutin particles (XRD) ([5]; pH < 8): crystalline form
Crystallinity of dried rutin particles (XRD) ([5]; pH close to 1.0): crystalline rutin was not present
Decrease in initial concentration of rutin (chemical stability) [6]: ~10%
